According to patent publication US9676779B2, “Small molecule CFTR correctors” (DISCOVERYBIOMED, INC., priority 2012, dated 2017):

Tests used:
Assay type in all cases: cell-based
[1] = molecular target: T1, delF508-CFTR chloride ion channels (Homo sapiens, UniProt P13569, DEL508-508); experiment: Ussing chamber short-circuit current electrical assay; conditions: for correction of functional delF508-CFTR chloride ion channels (short-circuit current): apical membrane of polarized CF human bronchial epithelium
T1 construct: functional delF508-CFTR chloride ion channels in the apical membrane of a polarized CF human bronchial epithelium; endogenous in cells
Protocol: The method of profiling can further include determining the degree of functional delF508-CFTR chloride ion channels in the apical cell membrane of cells (e.g., polarized CF human airway epithelial cells). This method can use electrophysiological methods, such as Ussing chamber-based measurement of short-circuit current, voltammeter-based measurement of open-circuit transepithelial voltage and transepithelial resistance, and patch-clamp electrophysiology.
An electrical assay was also performed to determine the functional rescue of delF508-CFTR to the apical cell membrane in a polarized epithelium using the compounds described herein. The metrics analyzed were the basal short-circuit Cl^− current, the change or delta Cl^− current stimulated by forskolin, the total stimulated Cl^− current (basal and forskolin), and the change or delta Cl^− current inhibited by GlyH101. For exemplary purposes, DMSO (100 nM) and VX-809 (100 nM equivalent) treatments were controls, and a CFCL corrector was tested (see FIG. 9).
Only high-resistance cell monolayers (>800 to 1,000 Ohms per cm^2) were used in the experiments. Basal short-circuit current (ISC) was measured and documented. Amiloride was added to the apical side of the Ussing chamber to block any contribution of ENaC or other sodium or cation channels under basal or stimulated conditions. The effect of amiloride was negligible under these cell culture conditions. In the continued presence of amiloride (100 μM), forskolin (10 μM) was added to both sides of the monolayer to selectively open any delF508-CFTR chloride channels in the apical cell membrane. This activation step uncovered any remaining corrected delF508-CFTR chloride ion channels in the apical membrane of the polarized CF human bronchial epithelium. The final step was the addition of a CFTR-selective inhibitor, GlyH101 (100 μM), to reverse the effect of forskolin.
Ussing chamber-derived short-circuit current data were obtained for Compounds C-15 and C-73 (see FIGS. 10 and 11). […] The same protocol of additions of drugs to the apical side of the Ussing chamber was performed on each cell monolayer as described above. CPT-cAMP and IBMX are equivalent and CFTR-specific agonists to forskolin. As described above, VX-770 is a CFTR potentiator drug added to activate any remaining corrected CFTR present.

[2] = molecular target: T2, delF508-CFTR (Homo sapiens, UniProt P13569, DEL508-508); experiment: SPQ halide-sensitive fluorescence dye profiling assay (rescue of halide efflux); conditions: for EC50 / EC50 (μM): SPQ assay, 8-point concentration-response curve, CFBE41o− cells; for Emax: VX-809 at 3 μM treated as 100% efficacy; for Efficacy Comparison to 3 μM VX-809: compared to VX-809 at 3 μM; for potency and efficacy versus VX-809 in SPQ profiling: compounds advanced to further profiling
T2 construct: Unaltered CFBE41o− cells were used as the model; endogenous in cells; host or cells: CFBE41o- human CF bronchial epithelial cells (delF508 homozygous, not overexpressing)
Protocol: The method of profiling can include detecting the rescue of halide efflux from a cell. The step of detecting a rescue of halide efflux from the cell can be monitored using the halide quenched dye 6-methoxy-N-(3-sulfopropyl)-quinolinium (SPQ, Molecular Probes Inc., Eugene, Oreg.). In this method, cells are treated with a compound as described herein for a period of time (e.g., 48 hours). The rescue or correction of halide efflux is then detected using the SPQ assay with the halide dye. […] Optionally, the halide efflux is chloride efflux. The method of screening can further comprise performing the method with multiple concentrations of the compound.
The compounds were initially subjected to the SPQ halide-sensitive fluorescence dye profiling assay for rescue or correction of membrane chloride ion permeability or transport with an 8-point concentration-response curve. The EC50 values for the compounds described herein were determined and compared to the efficacy of the industry standard Vertex 809 (VX-809; Vertex Pharmaceuticals, Cambridge, Mass.) at 3 μM, which is the maximally effective profiling dose for VX-809 (Table 1). The VX-809 dosage at 3 μM was treated as having 100% efficacy in the comparison.
To perform the SPQ high throughput screening assay, CFBE41o− cells were seeded into 96-well microtiter plates and were loaded with the fluorescent halide-sensitive dye, SPQ, in serum-containing culture medium. Certain wells were loaded with known positive control corrector molecules, including VX-809. The test compounds were loaded into wells and were tested in triplicate wells at a 10 μM dose and incubated over 48 hours at room temperature. During the 48 hour period, SPQ was absorbed. Plates were washed in a sodium chloride (NaCl) based Ringer and read once over two minutes to set the baseline SPQ fluorescence activity. Then, NaCl was replaced by sodium nitrate (NaNO3) based Ringer. The plates were read twice over four minutes. The primary high throughput screen (HTS) data were analyzed to detect any function of rescued delF508-CFTR under basal conditions. The plate was read up to two times to complete the SPQ HTS assay.

[3] = molecular target: T2, delF508-CFTR; experiment: CFTR Western blot / biochemical rescue assay (band B to band C); conditions: CF human airway epithelial cells; 10 nM-10 μM; 10% serum containing medium
Protocol: The method of profiling can also include determining the degree of CFTR glycosylation or CFTR protein processing. Optionally, this method can be performed using Western blot analysis. In this method, cells can be treated with the compound as described herein for a period of time (e.g., 24 hours) and, optionally, at multiple concentrations (e.g., 4 doses).
The method described in Example 3 was repeated with doses of the test compound of 0.01 μM, 0.1 μM, 1 μM, 10 μM, and 50 μM in Dulbecco's Modified Eagle Medium (DMEM) with 10% fetal bovine serum (FBS) for 48 hours at 37° C. Unaltered CFBE41o− cells were used as the model. A Western blot analysis of the lysates (10-50 μg total protein) was performed using the MM13-4 antibody for human CFTR to monitor changes in the CFTR protein. […] VX-809 and DMSO were used as the controls.
Cells were lysed in RIPA buffer (50 mM Tris-HCl, pH 7.4, 150 mM NaCl, 1% NP-40, 0.5% Deoxycholic Acid, 0.1% SDS) plus a cocktail of protease inhibitors (Roche; Basel, Switzerland). Protein concentrations in the cell lysates were measured by BCA Protein Assay using BSA as standard (Pierce; Rockford, Ill.). Proteins (25 μg) were resolved on an 8% SDS-PAGE gel and transferred to PDVF membranes. Total CFTR in the lysate was detected by immunoblotting using a specific CFTR antibody (MM13-4 from Upstate, 1:500 dilution).
The compounds were then subjected to a biochemical assay to define which hit compounds rescued the band B core glycosylated endoplasmic reticulum (ER) form of delF508-CFTR within the cell interior into the maturely glycosylated band C form within the secretory pathway for proteins and within the plasma membrane. Effective compounds stabilized the band B form of CFTR and caused more of this form to accumulate at the level of the ER.
By way of example, the delF508-CFTR mutation can be rescued from the ER with low temperature incubation for 48 hours (see examples in the blots as the positive control). The DMSO control is the simulated CF condition where the delF508-CFTR-expressing cells were grown at physiological temperature. […]

T2 sequence (P13569 with tags, fused parts or gaps DEL508-508): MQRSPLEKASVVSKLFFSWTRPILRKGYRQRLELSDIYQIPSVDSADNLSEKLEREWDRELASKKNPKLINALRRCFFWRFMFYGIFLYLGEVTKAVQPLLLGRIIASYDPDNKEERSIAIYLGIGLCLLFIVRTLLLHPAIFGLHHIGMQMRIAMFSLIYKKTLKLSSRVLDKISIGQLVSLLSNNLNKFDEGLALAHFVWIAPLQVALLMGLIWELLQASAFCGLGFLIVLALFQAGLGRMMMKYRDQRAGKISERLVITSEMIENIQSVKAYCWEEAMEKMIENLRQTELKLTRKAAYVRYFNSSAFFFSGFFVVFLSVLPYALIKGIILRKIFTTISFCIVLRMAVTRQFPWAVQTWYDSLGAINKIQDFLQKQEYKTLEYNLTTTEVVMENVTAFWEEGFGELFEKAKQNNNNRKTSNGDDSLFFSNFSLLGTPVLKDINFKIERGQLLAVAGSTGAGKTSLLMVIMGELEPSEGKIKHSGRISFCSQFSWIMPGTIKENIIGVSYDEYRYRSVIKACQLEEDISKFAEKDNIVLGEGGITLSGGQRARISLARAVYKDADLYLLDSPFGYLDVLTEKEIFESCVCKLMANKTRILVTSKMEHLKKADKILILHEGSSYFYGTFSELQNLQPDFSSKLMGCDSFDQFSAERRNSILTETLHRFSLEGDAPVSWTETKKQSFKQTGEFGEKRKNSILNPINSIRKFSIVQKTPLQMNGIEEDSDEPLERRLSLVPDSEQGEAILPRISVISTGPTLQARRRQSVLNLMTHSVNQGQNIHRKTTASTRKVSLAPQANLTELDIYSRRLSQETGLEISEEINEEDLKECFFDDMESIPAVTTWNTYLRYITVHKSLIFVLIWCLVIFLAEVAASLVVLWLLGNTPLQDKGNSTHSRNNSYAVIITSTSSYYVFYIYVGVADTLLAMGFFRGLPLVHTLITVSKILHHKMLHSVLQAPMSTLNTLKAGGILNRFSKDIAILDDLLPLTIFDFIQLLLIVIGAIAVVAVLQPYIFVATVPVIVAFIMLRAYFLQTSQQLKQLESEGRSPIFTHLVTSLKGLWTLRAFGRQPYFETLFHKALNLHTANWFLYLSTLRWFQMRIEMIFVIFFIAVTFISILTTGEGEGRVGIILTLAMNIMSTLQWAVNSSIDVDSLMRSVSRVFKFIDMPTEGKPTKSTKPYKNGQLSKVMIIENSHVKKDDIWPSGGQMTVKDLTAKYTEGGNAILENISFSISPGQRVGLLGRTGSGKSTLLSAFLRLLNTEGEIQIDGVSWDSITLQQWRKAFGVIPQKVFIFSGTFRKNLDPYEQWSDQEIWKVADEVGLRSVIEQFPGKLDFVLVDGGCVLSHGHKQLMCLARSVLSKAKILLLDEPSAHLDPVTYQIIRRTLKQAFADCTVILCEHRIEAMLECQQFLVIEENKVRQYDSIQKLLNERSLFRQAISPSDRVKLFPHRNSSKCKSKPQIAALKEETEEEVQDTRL
T1 sequence (P13569 with tags, fused parts or gaps DEL508-508): as above

EC50 [2] [µM]	Emax [2] [%]	Efficacy Comparison to 3 μM VX-809 [2]	Structure (SMILES)	also measured
			CC(C)(C)c1cc(C(C)(C)C)c(NC(=O)c2c[nH]c3ccccc3c2=O)cc1O [VX-770, reference compound]	opening of additional delF508-CFTR channels (potentiation) ([1]; in the presence of forskolin, monolayer corrected with Compound C-15, FIG. 10): opens some additional delF508-CFTR channels
0.3	120	10-fold greater than VX-809	CCOC(=O)c1nnc2c(-c3ccc(Cl)c(Cl)c3)c(C)nn2c1C [Compound C-15]	potency and efficacy versus VX-809 in SPQ profiling [2]: superior potency and efficacy to VX-809; biochemical correction of the delF508-CFTR protein [3]: biochemical correction; correction of functional delF508-CFTR chloride ion channels (short-circuit current) [1]: robust correction
0.16	110	15-fold greater than VX-809	CCOc1cc(-c2c(C)nn3c(C)c(C(=O)O)nnc23)ccc1Cl [Compound C-59]	potency and efficacy versus VX-809 in SPQ profiling [2]: superior potency and efficacy to VX-809; GlyH101-sensitive current, concentration-response ([1]; increasing concentrations, FIG. 12): stimulate increased amounts of GlyH101-sensitive current
1	120	7-fold greater than VX-809	CCOC(=O)c1nnc2c(-c3ccc(Cl)cc3)cnn2c1C [Compound C-12]	potency and efficacy versus VX-809 in SPQ profiling [2]: superior potency and efficacy to VX-809; biochemical correction of the delF508-CFTR protein [3]: biochemical correction
1.1	125	5-fold greater than VX-809	Cc1nn2c(C)c(C(=O)O)nnc2c1-c1ccc(OC2CCCC2)cc1 [Compound C-73]	potency and efficacy versus VX-809 in SPQ profiling [2]: superior potency and efficacy to VX-809; correction of functional delF508-CFTR chloride ion channels (short-circuit current) [1]: superior potency and equivalent to greater efficacy versus VX-809
	0		CCOC(=O)c1nnc2c(-c3ccc(Cl)c(Cl)c3)c(C)nn2c1C(=O)OCC [Compound C-26.1]	EC50 (μM) [2]: No effect (toxic
17.8	120	Less than VX-809	Cc1nn2c(C)c(C(=O)O)nnc2c1-c1ccc(O)cc1 [Compound C-9]	
26.3	50	Less than VX-809	CNC(=O)c1nnc2c(-c3ccc(Cl)c(Cl)c3)c(C)nn2c1C [Compound C-30]	
10.5	40	Less than VX-809	COc1cc(-c2c(C)nn3c(C)c(C(=O)O)nnc23)ccc1Cl [Compound C-59.1]	
> 30	75	Equivalent to VX-809	CCOC(=O)c1nnc2c(-c3ccc(OCC)cc3)c(C)nn2c1C [Compound C-17]	
20	70	Less than VX-809	Cc1nn2c(C)c(C(=O)O)nnc2c1Cc1ccccc1 [Compound C-52]	
2.3	90		CCCOc1cc(-c2c(C)nn3c(C)c(C(=O)O)nnc23)ccc1Cl [Compound C-72]	
	100		Cc1nn2c(C)c(C(=O)O)nnc2c1-c1ccc2c(c1)OCCO2 [Compound C-58]	
3.4	50	Equivalent to VX-809	Cc1nn2c(C)c(C(=O)O)nnc2c1C1CCCCC1 [Compound C-51]	
	0		Cc1c(C(=O)O)nnc2c(-c3ccccc3)c(-c3ccccc3)nn12 [Compound C-11]	EC50 (μM) [2]: No effect
	0		CCOC(=O)c1c(C(=O)OC(C)(C)C)nnc2c(-c3ccc(Cl)c(Cl)c3)c(C)nn12 [Compound C-26.2]	EC50 (μM) [2]: No effect (toxic
3.3	90	2-fold greater than VX-809	Cc1nn2c(N)c(C(=O)O)nnc2c1-c1ccc(Cl)cc1 [Compound C-27]	
	5		COC(=O)C(=O)c1nnc2c(-c3ccc(Cl)c(Cl)c3)c(C)nn2c1C [Compound C-32.1]	EC50 (μM) [2]: No effect (toxic

Structure (SMILES)	EC50 [2] [µM]	Emax [2] [%]	Efficacy Comparison to 3 μM VX-809 [2]	also measured
Cc1c(C(=O)O)nnc2c(-c3ccc(Cl)cc3)cnn12 [Compound C-2]	1	170	10-fold greater than VX-809	potency and efficacy versus VX-809 in SPQ profiling [2]: superior potency and efficacy to VX-809; biochemical correction of the delF508-CFTR protein [3]: biochemical correction
